Experimental data as given in ChEMBL document CHEMBL1154503, “Calmodulin inhibitors from the fungus Emericella sp” (Bioorg Med Chem, 2009).

What was measured:
Calmodulin-1 [1] = biological target: T1, Calmodulin-1 (Homo sapiens, UniProt P0DP23); experiment: Inhibition of recombinant calmodulin mediated bovine brain PDE1 activation assessed as effect on inorganic phosphate release by spectrophotometry
Calmodulin-1 [2] = biological target: T1, Calmodulin-1; experiment: Inhibition of recombinant calmodulin mediated bovine brain PDE1 activation assessed as effect on inorganic phosphate release using variable calmodulin level by spectrophotometry

IC50 (Calmodulin-1 [1])	Ki (Calmodulin-1 [2])	SMILES
5.62 µM	13.9 µM	C=C(C)[C@H]1COc2c(C)cc3oc4c(C[C@H](O)C(C)(C)O)ccc(O)c4c(=O)c3c2[C@@H]1O [TAJIXANTHONE HYDRATE]
5.54 µM	25.4 µM	C=C(C)[C@H]1COc2c(C)cc3oc4c([C@H](OC)[C@@H]5OC5(C)C)ccc(O)c4c(=O)c3c2[C@@H]1O
29.2 µM	–	C=C(C)[C@H]1COc2c(C)cc3oc4c(CC=C(C)C)ccc(O)c4c(=O)c3c2[C@@H]1O [SHAMIXANTHONE]
9.59 µM	–	C=C(C)[C@H]1COc2c(C)cc3oc4c(C[C@H](Cl)C(C)(C)O)ccc(O)c4c(=O)c3c2[C@@H]1O
